Experimental data published in patent US4482568A, “Inhibition of alcohol metabolism by tetramethylene sulfoxides” (University of Iowa Research Foundation, priority 1983, dated 1984).
Where two headings read alike, the source gives them in different places.

Columns and labels:
[1] = molecular target: T1, horse liver alcohol dehydrogenase (Equus caballus, UniProt P00327); assay: Inhibition of horse liver alcohol dehydrogenase in vitro (Kii against varied ethanol); assay type: biochemical
T1 construct: Crystallized horse liver alcohol dehydrogenase; from tissue; host or cells: horse liver
Procedure: (§1) ^a The Kii values (intercept) inhibition constants in micromolar
(§2) units as determined against varied concentrations of ethanol as substrate
(§3) Purified or partially purified enzyme was tested under approximately
(§4) physiological conditions, pH 7.3 and 37° C., except that the
(§5) crystallized horse enzyme was tested at pH 7 and 25° C.
(§6) Crystallized horse liver alcohol dehydrogenase was freed from endogenous ethanol by filtration though a column of Sephadex G-50. Inhibition studies were carried out with varied concentrations of ethanol (0.4-2 mM) at 1 mM NAD+ in 46 mM sodium phosphate buffer, pH 7, at 25° C. In each experiment, at least three different concentrations of inhibitor were tested and 32 initial velocities were determined (as in FIGS. 2A and 3A of the Journal article). Data for noncompetitive inhibition were fitted to the equation v=VS/[Km (1+[…])+S(1+I/Kii)], whereas the equation for uncompetitive inhibition has no Kis term, and competitive inhibition has no Kii term. The equation giving the lowest standard errors and residual variance was concluded to give the best fit. Rat liver alcohol dehydrogenase was partially purified, and inhibition studies were performed as with the horse liver enzyme, except that the buffer was 83 mM potassium phosphate, pH 7.3, and 40 mM KCl, total ionic strength=0.25, and the temperature was 37.8° C. The concentration of NAD was 0.5 mM. These conditions are thought to resemble those found in vivo. The concentrations of ethanol were 0.4, 0.6, 1, and 2 mM, and the inhibitors were varied between 0 and 0.6 mM.

ethanol metabolism [2] = assay: Ethanol (elimination rate) metabolism in rats; assay type: in vivo, male Sprague-Dawley rats; settings: for Ethanol (Elimination Rate) Metabolism In Rats, % Inhibition: 19.6 mmoles of ethanol/kg i.p. and 1 mmole/kg inhibitor, maximum obtainable about 85%
Procedure: ^b The Kii (intercept inhibition constant, micromoles/kg) was
determined with varied concentrations of inhibitor and ethanol by
determination of blood alohol concentrations. For a survey of inhibitory
potency, rats were given 19.6 mmoles of ethanol/kg body wt., i.p., and 1.
mmole of the inhibitor, and the percentage inhibition of ethanol
elimination was calculated with reference to an animal given no inhibitor
The maximum "inhibition" that can be obtained is about 85%, since some
ethanol is eliminated by excretion, rather than by oxidation by alcohol
^c The value was estimated from results from rats given 19.6 mmoles o
ethanol/kg and 0.1, 0.4, and 1.0 mmoles/kg of the inhibitor.
The precise experimental details for assembling the data shown in the above table are reported in our Journal of Medicinal Chemistry article, 1983, Vol. 26, No. 6, at page 921. The entire article is incorporated herein by reference. In particular, for the rat studies, inhibition of ethanol metabolism by the active compounds of this invention were studied in vitro in liver alcohol dehydrogenase from horses, monkeys and rats. The in vivo study of ethanol metabolism in rats, and in particular its inhibition was studied with male Sprague-Dawley rats, which were given intraperitoneal injections of active compounds (0.1 molar) in saline at doses of 0.0, 0.25 and 0.5 or 1.0 mmole/kg of body weight. Ten minutes later, ethanol was injected intraperitoneally at a dose of 19.6 mmoles/kg of body weight. Blood samples were taken at intervals, timed from the ethanol injection, and analyzed by gas chromatography.

ethanol metabolism [3] = assay: Blood alcohol concentration in rats after ethanol and inhibitor (FIG. 1); assay type: in vivo; settings: 19.6 mmol/kg ethanol, 1 mmol/kg inhibitor
Procedure: In order to compare dimethyl sulfoxide and its potential as an inhibitor with the compounds of this invention, rats were given dosages of 19.6 millimoles per kilogram of body weight of alcohol and/or injections of one millimole per kilogram of body weight of the inhibitors, either dimethyl sulfoxide, tetramethylene sulfoxide, 3-methyltetramethylene sulfoxide, or 3-butyltetramethylene sulfoxide. After injection, the alcohol concentration in the blood was measured. The drawing reports the alcohol concentration. The line designated by the numeral 12 represents ethanol without any inhibitor. The line designated by 11 represents ethanol with dimethyl sulfoxide. The line represented by the numeral 13 represents ethanol with tetramethylene sulfoxide.

[4] = molecular target: Liver Alcohol Dehydrogenase (Monkey); assay: Inhibition of monkey liver alcohol dehydrogenase in vitro (Kii against varied ethanol); assay type: biochemical; settings: purified or partially purified enzyme, pH 7.3, 37° C., ethanol varied as substrate
Procedure: as §1, §2, §3, §4, §5

[5] = molecular target: T2, Rat liver alcohol dehydrogenase (Rattus norvegicus, UniProt P06757); assay: Inhibition of rat liver alcohol dehydrogenase in vitro (Kii against varied ethanol); assay type: biochemical
T2 construct: Rat liver alcohol dehydrogenase was partially purified; from tissue; host or cells: rat liver
Procedure: as §1, §2, §3, §4, §5, §6

[6] = tested on: isolated liver alcohol dehydrogenases; assay: Inhibition of ethanol oxidation by isolated liver alcohol dehydrogenases (general statements); assay type: biochemical
Procedure: as §6

[7] = tested on: alcohol dehydrogenases in the liver; settings: background, cited from earlier work
[8] = tested on: ethanol induced loss of righting reflex; settings: mice; Sharkawi 1979; cited from earlier work
[9] = crystallized horse enzyme, pH 7, 25° C., ethanol varied as substrate, read-out: Liver Alcohol Dehydrogenase, In Vitro, Kii, Horse
[10] = partially purified enzyme, pH 7.3, 37° C., ethanol varied as substrate, read-out: Liver Alcohol Dehydrogenase, In Vitro, Kii, Rat

T1 sequence (P00327 2-375 limits assumed): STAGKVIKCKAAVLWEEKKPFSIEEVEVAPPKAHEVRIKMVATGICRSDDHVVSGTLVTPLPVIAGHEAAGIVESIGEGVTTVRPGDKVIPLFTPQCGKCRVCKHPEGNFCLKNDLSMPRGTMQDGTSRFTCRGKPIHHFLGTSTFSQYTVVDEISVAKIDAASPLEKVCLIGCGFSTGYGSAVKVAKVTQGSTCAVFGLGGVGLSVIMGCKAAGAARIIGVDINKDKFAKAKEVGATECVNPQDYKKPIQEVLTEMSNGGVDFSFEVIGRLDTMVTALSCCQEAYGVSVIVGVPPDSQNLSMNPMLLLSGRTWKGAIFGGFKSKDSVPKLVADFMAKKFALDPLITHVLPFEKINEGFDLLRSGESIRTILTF
T2 sequence (P06757 2-376 limits assumed): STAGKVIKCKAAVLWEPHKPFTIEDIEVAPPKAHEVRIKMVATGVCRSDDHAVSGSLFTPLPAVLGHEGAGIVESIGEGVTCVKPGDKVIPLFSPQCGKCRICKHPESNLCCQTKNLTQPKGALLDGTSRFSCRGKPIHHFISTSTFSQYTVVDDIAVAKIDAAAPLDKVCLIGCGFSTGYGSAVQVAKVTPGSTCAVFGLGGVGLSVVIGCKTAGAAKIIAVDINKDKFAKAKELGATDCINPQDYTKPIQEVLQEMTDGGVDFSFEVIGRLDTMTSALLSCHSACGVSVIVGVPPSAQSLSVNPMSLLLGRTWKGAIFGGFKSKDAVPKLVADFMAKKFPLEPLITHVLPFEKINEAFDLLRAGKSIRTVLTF

SMILES	Ki [1, 9] [µM]	Ethanol (Elimination Rate) Metabolism In Rats, % Inhibition (ethanol metabolism [2]) [%]	effectiveness as inhibitor of alcohol metabolism (blood alcohol concentration) (ethanol metabolism [3])	Ki [4] [µM]	Ki [5, 10] [µM]	further results
CCCCC1CC[S+]([O-])C1 (stereo not shown) [3-Butyltetramethylene sulfoxide, 3-butylthiolane-1-oxide]	0.63	76	far superior to even tetramethylene sulfoxide	2.2	1.5	
CC1CC[S+]([O-])C1 (stereo not shown) [3-Methyltetramethylene sulfoxide, 3-Methylthiolane-1-oxide]	7.5	72	far superior to even tetramethylene sulfoxide	450	18	Ethanol (Elimination Rate) Metabolism In Rats, Kii (estimated) (ethanol metabolism [2]; estimated from rats given 19.6 mmoles of ethanol/kg and 0.1, 0.4, and 1.0 mmoles/kg of inhibitor): 150 µmol/kg
[O-][S+]1CCCC1 [Tetramethylene Sulfoxide, tetramethylene sulfoxide]		63	far more effective	1700		Ki [1]: 19 µM; inhibition of ethanol metabolism in animals (in words) (ethanol metabolism [2]; animals/rats): effectively inhibit ethanol metabolism in animals; Ethanol (Elimination Rate) Metabolism In Rats, Kii (ethanol metabolism [2]; intercept inhibition constant, varied concentrations of inhibitor and ethanol, blood alcohol concentrations, i.p.): 340 µmol/kg; Ki [5]: 200 µM; inhibition of ethanol oxidation by isolated liver alcohol dehydrogenases (in words) [6]: exceptionally potent inhibitors
C[S+](C)[O-] [dimethyl sulfoxide, reference compound]			not effective as an inhibitor			inhibitory effect on alcohol metabolism ([7]; Sharkawi, Toxicology Letters 1979): some slight inhibitory effect; effect on ethanol induced loss of righting reflex [8]: significantly "prolong the ethanol induced loss of righting reflex in mice"; inhibition constant with horse liver alcohol dehydrogenase ([1]; stated for comparison): four to five
CCO [ethanol]						type of inhibition [7]: competitive inhibitor; effectiveness as inhibitor ([7]; ethanol as treatment for toxic alcohol ingestion): not a very effective inhibitor
